Values of other authors, collected in patent publication US20090098217A1, “COMPOSITIONS AND METHODS FOR PROMOTING THICKER HAIR” (priority 2007, published 2009).
Where two headings read alike, the source gives them in different places.

What was measured:
[1] = system: 5-alpha-reductase; conditions: in vitro
[2] = system: 5-alpha-reductase; conditions: 5 or 10 mg of zinc injected in rat prostate

## [Zn] [zinc]
[1]; low concentrations of zinc
  conversion of testosterone to DHT: enhance conversion of testosterone to DHT
[1]; mM concentrations of zinc
  conversion of testosterone to DHT: inhibited it
[2]
  5-alpha-reductase activity: significantly reduced 5-alpha-reductase activity
